Broadly, the half-life is the time in which the quantity being followed falls by half. The low end stands for fast loss, the high end for slow loss. The term CC50 denotes the concentration that lowers cell viability or growth by half. Lower therefore signals harm at low concentration.

We go through 1 compound from US8895695B2, “Template-fixed beta-hairpin peptidomimetics with CXCR4 antagonizing activity” (priority 2003, dated 2014).

The test system of series [1] is 'CCR5' cells / Hut/4-3 cells co-cultivation. The experiment in a line: FIGS-Assay. The series is classed as cell-based. The conditions noted are these: 200 nM peptide, 48 hours of co-cultivation. On the procedure: The assay was performed according to ref. 5, below. Stock dilutions of the peptides (10 mM) were prepared by dissolving in 10 mM Tris-HCl at room temperature. Stock solutions were kept at +4° C., light protected. Working dilutions were prepared extemporaneously by serial dilution in Phosphate Buffered Saline (PBS) and added in a final volume of 10 μl directly to the cell cultures. After 48 hours of co-cultivation the cultures were rinsed with PBS and then exposed to glutaraldehyde/formaldehyde (0.2%/2%) in PBS for five minutes. For photometric quantification the fixed cultures were subsequently incubated with ortho-nitro-phenyl-galactopyranoside (ONPG) as a β-galactosidase substrate, which was enzymatically converted into the chromophore ortho-nitrophenol (ONP). The read out is directly obtained by measuring optical density of wells at 405 nm in an iEMS 96well-plate reader.
All fine chemicals came from Merck (Darmstadt, Germany).

Another series can be described thus: in vitro. Format: in vitro ADME. As to conditions: plasma. How it is done: 405 μl of plasma/albumin solution were placed in a polypropylene (PP) tube and spiked with 45 μl of compound from a 100 μM solution B, derived from 135 μl of PBS and 15 μl of 1 mM peptide in PBS, pH 7.4. 150 μl aliquots were transferred into individual wells of the 10 kDa filter plate (Millipore MAPPB 1010 Biomax membrane). For “0 minutes controls”: 270 μl of PBS were placed in a PP tube and 30 μl of stock solution B was added and vortexed. 150 μl of control solution was placed into one well of the filter plate and serves as “filtered control”.
Further 150 μl of control solution were placed directly into a receiver well (reserved for filtrate) and serve as “not-filtered control”. The entire plate including evaporation lid was incubated for 60 min at 37° C. Plasma samples (rat plasma: Harlan Sera lab UK, human plasma: Blutspendezentrum Zürich) were centrifuged at least for 2 h at 4300 rpm (3500 g) and 15° C. in order to yield 100 μl filtrate. For “serum albumin”-samples (freshly prepared human albumin: Sigma A-4327, rat albumin: Sigma A-6272, all at 40 mg/ml concentration in PBS) approximately 1 hour of centrifugation is sufficient. The filtrates in the receiver PP plate were analysed by LC/MS as followes: Column: Jupiter C18 (Phenomenex), mobile phases: (A) 0.1% formic acid in water and (B) acetonitrile, gradient: 5%-100% (B) in 2 minutes, electrospray ionization, MRM detection (triple quadrupole). The peak areas were determined and triplicate values are averaged. The binding is expressed in percent of the (filtered and not-filtered time point 0 min) control 1 and 2 by: 100−(100*T60/T0). The average from these values is then calculated (see ref. 9 below).

The nature of series [2]: Cytotoxicity assay (MTT reduction), HELA cells.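 Also: MTT reduction read as absorbance at 595 nm, blank-corrected and expressed as percent growth relative to the time-zero cell reading, triplicate wells per concentration.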 The conditions noted are these: human, HELA cells (Acc57).

With `N=C(N)NCCC[C@@H]1NC(=O)[C@@H]2CSSC[C@H](NC(=O)[C@H](Cc3ccc4ccccc4c3)NC(=O)[C@H](CCCNC(=N)N)NC(=O)[C@H](CCCNC(=N)N)NC(=O)[C@H]3CCCN3C(=O)CNC1=O)C(=O)N[C@@H](Cc1ccc(O)cc1)C(=O)N[C@@H](CCCNC(N)=O)C(=O)N[C@@H](CCCCN)C(=O)N1CCC[C@@H]1C(=O)N1CCC[C@H]1C(=O)N[C@@H](Cc1ccc(O)cc1)C(=O)N[C@@H](CCCNC(=N)N)C(=O)N[C@@H](CCCNC(N)=O)C(=O)N2` [Ex. 51], the “FIGS % inhibition at 200 nM” value in series [1] was found to be 93.9%. Also, the half-life at 10 μM in “in vitro” (human) is 286 min; in “in vitro” (rat) it was above 300 min. The compound also returned a CC50 at 48 h in series [2] of 97 µM.
